Source: patent US20210127673A1, “HERBICIDES” (SYNGENTA PARTICIPATIONS AG, priority 2016, published 2021)

How the values were obtained:
Type in all cases: in vivo
Conditions in all cases: evaluated after 13 days
[1] = tested on: Triticum aestivium (TRZAW); assay: Pre-emergence herbicidal activity, Triticum aestivium; design: key: 5=total damage to plant; 0=no damage to plant
Procedure, shortened: (§1)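 Compound is applied as an aqueous spray (acetone/water 50:50, 0.5% Tween 20) to pots one day after sowing, before emergence. Growth continues in a glasshouse at 24/16 °C, 14 h photoperiod, 65% humidity, with twice-daily watering, and injury is graded after 13 days from 0 (no damage) to 5 (total damage).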

[2] = tested on: Avena fatua (AVEFA); assay: Pre-emergence herbicidal activity, Avena fatua; design: key: 5=total damage to plant; 0=no damage to plant
Procedure, shortened: as §1

[3] = tested on: Alopecurus myosuroides (ALOMY); assay: Pre-emergence herbicidal activity, Alopecurus myosuroides; design: key: 5=total damage to plant; 0=no damage to plant
Procedure, shortened: as §1

[4] = tested on: Echinochloa crus-galli (ECHCG); assay: Pre-emergence herbicidal activity, Echinochloa crus-galli; design: key: 5=total damage to plant; 0=no damage to plant
Procedure, shortened: as §1

[5] = tested on: Lolium perenne (LOLPE); assay: Pre-emergence herbicidal activity, Lolium perenne; design: key: 5=total damage to plant; 0=no damage to plant
Procedure, shortened: as §1

[6] = tested on: Setaria faberi (SETFA); assay: Pre-emergence herbicidal activity, Setaria faberi; design: key: 5=total damage to plant; 0=no damage to plant
Procedure, shortened: as §1

[7] = tested on: Triticum aestivium (TRZAW); assay: Post-emergence herbicidal activity, Triticum aestivium; design: key: 5=total damage to plant; 0=no damage to plant
Procedure, shortened: (§2)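 Pot-grown plants in standard soil were sprayed 8 days after sowing with active ingredient in acetone/water (50:50) containing 0.5% Tween 20. Glasshouse at 24/16 °C day/night, 14 h light, 65% humidity, watered twice daily. Damage scored after 13 days on 0 (none) to 5 (total) scale.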

[8] = tested on: Avena fatua (AVEFA); assay: Post-emergence herbicidal activity, Avena fatua
Procedure, shortened: as §2

[9] = tested on: Alopecurus myosuroides (ALOMY); assay: Post-emergence herbicidal activity, Alopecurus myosuroides; design: key: 5=total damage to plant; 0=no damage to plant
Procedure, shortened: as §2

[10] = tested on: Echinochloa crus-galli (ECHCG); assay: Post-emergence herbicidal activity, Echinochloa crus-galli; design: key: 5=total damage to plant; 0=no damage to plant
Procedure, shortened: as §2

[11] = tested on: Lolium perenne (LOLPE); assay: Post-emergence herbicidal activity, Lolium perenne; design: key: 5=total damage to plant; 0=no damage to plant
Procedure, shortened: as §2

[12] = tested on: Setaria faberi (SETFA); assay: Post-emergence herbicidal activity, Setaria faberi; design: key: 5=total damage to plant; 0=no damage to plant
Procedure, shortened: as §2

Structure (SMILES) | Control of TRAZW after pre-emergence application (score 0-5) ([1]; 1000 g/ha) | Control of AVEFA after pre-emergence application (score 0-5) ([2]; 1000 g/ha) | Control of ALOMY after pre-emergence application (score 0-5) ([3]; 1000 g/ha) | Control of ECHCG after pre-emergence application (score 0-5) ([4]; 1000 g/ha) | Control of LOLPE after pre-emergence application (score 0-5) ([5]; 1000 g/ha) | Control of SETFA after pre-emergence application (score 0-5) ([6]; 1000 g/ha) | Control of TRAZW after post-emergence application (score 0-5) ([7]; 1000 g/ha) | Control of AVEFA after post-emergence application (score 0-5) ([8]; 1000 g/ha) | Control of TRAZW after pre-emergence application (score 0-5) ([1]; 250 g/ha) | Control of AVEFA after pre-emergence application (score 0-5) ([2]; 250 g/ha) | Control of ALOMY after pre-emergence application (score 0-5) ([3]; 250 g/ha) | Control of ECHCG after pre-emergence application (score 0-5) ([4]; 250 g/ha) | Control of LOLPE after pre-emergence application (score 0-5) ([5]; 250 g/ha) | Control of SETFA after pre-emergence application (score 0-5) ([6]; 250 g/ha) | Control of TRAZW after post-emergence application (score 0-5) ([7]; 250 g/ha) | Control of AVEFA after post-emergence application (score 0-5) ([8]; 250 g/ha) | Control of ALOMY after post-emergence application (score 0-5) ([9]; 250 g/ha) | Control of ECHCG after post-emergence application (score 0-5) ([10]; 250 g/ha) | Control of LOLPE after post-emergence application (score 0-5) ([11]; 250 g/ha) | Control of SETFA after post-emergence application (score 0-5) ([12]; 250 g/ha) | also measured
N#CC1(NC(=O)Nc2ccc(-c3cncc(F)c3)nc2C(F)(F)F)CCC1 [Compound B81] | 0 | 1 | 1 | 5 | 1 | 5 | 1 | 3 | – | – | – | – | – | – | – | – | – | – | – | – | Control of ALOMY after post-emergence application (score 0-5) ([9]; 1000 g/ha): 1; Control of ECHCG after post-emergence application (score 0-5) ([10]; 1000 g/ha): 5; Control of LOLPE after post-emergence application (score 0-5) ([11]; 1000 g/ha): 2; Control of SETFA after post-emergence application (score 0-5) ([12]; 1000 g/ha): 5
CSCCCOC(=O)Nc1ccc(-c2cncc(F)c2)nc1C(F)(F)F [Compound B83] | 0 | 2 | 0 | 4 | 2 | 5 | 1 | 4 | – | – | – | – | – | – | – | – | – | – | – | – | Control of ALOMY after post-emergence application (score 0-5) ([9]; 1000 g/ha): 0; Control of ECHCG after post-emergence application (score 0-5) ([10]; 1000 g/ha): 5; Control of LOLPE after post-emergence application (score 0-5) ([11]; 1000 g/ha): 3; Control of SETFA after post-emergence application (score 0-5) ([12]; 1000 g/ha): 5
O=C(Nc1cc(Cl)cc(Cl)c1)Nc1ccc(-c2cncc(F)c2)nc1C(F)(F)F [Compound B88] | – | – | – | – | – | – | – | – | 0 | 0 | 0 | 1 | 2 | 2 | 0 | 1 | 0 | 1 | 0 | 1 | –
O=C(Nc1ccc(-c2cncc(F)c2)nc1C(F)(F)F)NC1CC1 [Compound B89] | 0 | 2 | 0 | 4 | 1 | 5 | 1 | 4 | – | – | – | – | – | – | – | – | – | – | – | – | Control of ALOMY after post-emergence application (score 0-5) ([9]; 1000 g/ha): 0; Control of ECHCG after post-emergence application (score 0-5) ([10]; 1000 g/ha): 5; Control of LOLPE after post-emergence application (score 0-5) ([11]; 1000 g/ha): 2; Control of SETFA after post-emergence application (score 0-5) ([12]; 1000 g/ha): 5
CC(C)CNC(=O)Nc1ccc(-c2cncc(F)c2)nc1C(F)(F)F [Compound B90] | – | – | – | – | – | – | – | – | 0 | 1 | 0 | 4 | 1 | 5 | 0 | 3 | 0 | 4 | 2 | 5 | –
CC(C)(C)COC(=O)Nc1ccc(-c2cncc(F)c2)nc1C(F)(F)F [Compound B91] | – | – | – | – | – | – | – | – | 1 | 1 | 0 | 2 | 1 | 5 | 0 | 2 | 0 | 2 | 1 | 5 | –
Cc1cnc(CNC(=O)Nc2ccc(-c3cncc(F)c3)nc2C(F)(F)F)cn1 [Compound B92] | – | – | – | – | – | – | – | – | 0 | 1 | 0 | 1 | 0 | 5 | 0 | 3 | 0 | 3 | 1 | 4 | –
O=C(Nc1ccc(-c2cncc(F)c2)nc1C(F)(F)F)OC1CCOCC1 [Compound B93] | – | – | – | – | – | – | – | – | 0 | 2 | 0 | 4 | 1 | 5 | 0 | 4 | 0 | 5 | 3 | 5 | –
O=C(Nc1ccc(-c2cncc(F)c2)nc1C(F)(F)F)OCC1CC1 [Compound B94] | 0 | 3 | 1 | 4 | 2 | 5 | 0 | 3 | – | – | – | – | – | – | – | – | – | – | – | – | Control of ALOMY after post-emergence application (score 0-5) ([9]; 1000 g/ha): 0; Control of ECHCG after post-emergence application (score 0-5) ([10]; 1000 g/ha): 5; Control of LOLPE after post-emergence application (score 0-5) ([11]; 1000 g/ha): 3; Control of SETFA after post-emergence application (score 0-5) ([12]; 1000 g/ha): 5
CCCCN(C)C(=O)Nc1ccc(-c2cncc(F)c2)nc1C(F)(F)F [Compound B95] | – | – | – | – | – | – | – | – | 0 | 0 | 0 | 1 | 1 | 4 | 0 | 3 | 0 | 2 | 1 | 5 | –
